What was measured:
[1] = biological target: T1, Epidermal growth factor receptor (Homo sapiens, UniProt P00533); test: Inhibition of human EGFR in presence of 1 uM ATP
[2] = biological target: T2, Vascular endothelial growth factor receptor 2 (Homo sapiens, UniProt P35968); test: Inhibition of human VEGFR2 in presence of 1 uM ATP
[3] = biological target: T2, Vascular endothelial growth factor receptor 2; test: Inhibition of human VEGFR2 in presence of 1 mM ATP
[4] = biological target: T1, Epidermal growth factor receptor; test: Inhibition of human EGFR in presence of 1 mM ATP

T2 sequence (P35968 whole entry): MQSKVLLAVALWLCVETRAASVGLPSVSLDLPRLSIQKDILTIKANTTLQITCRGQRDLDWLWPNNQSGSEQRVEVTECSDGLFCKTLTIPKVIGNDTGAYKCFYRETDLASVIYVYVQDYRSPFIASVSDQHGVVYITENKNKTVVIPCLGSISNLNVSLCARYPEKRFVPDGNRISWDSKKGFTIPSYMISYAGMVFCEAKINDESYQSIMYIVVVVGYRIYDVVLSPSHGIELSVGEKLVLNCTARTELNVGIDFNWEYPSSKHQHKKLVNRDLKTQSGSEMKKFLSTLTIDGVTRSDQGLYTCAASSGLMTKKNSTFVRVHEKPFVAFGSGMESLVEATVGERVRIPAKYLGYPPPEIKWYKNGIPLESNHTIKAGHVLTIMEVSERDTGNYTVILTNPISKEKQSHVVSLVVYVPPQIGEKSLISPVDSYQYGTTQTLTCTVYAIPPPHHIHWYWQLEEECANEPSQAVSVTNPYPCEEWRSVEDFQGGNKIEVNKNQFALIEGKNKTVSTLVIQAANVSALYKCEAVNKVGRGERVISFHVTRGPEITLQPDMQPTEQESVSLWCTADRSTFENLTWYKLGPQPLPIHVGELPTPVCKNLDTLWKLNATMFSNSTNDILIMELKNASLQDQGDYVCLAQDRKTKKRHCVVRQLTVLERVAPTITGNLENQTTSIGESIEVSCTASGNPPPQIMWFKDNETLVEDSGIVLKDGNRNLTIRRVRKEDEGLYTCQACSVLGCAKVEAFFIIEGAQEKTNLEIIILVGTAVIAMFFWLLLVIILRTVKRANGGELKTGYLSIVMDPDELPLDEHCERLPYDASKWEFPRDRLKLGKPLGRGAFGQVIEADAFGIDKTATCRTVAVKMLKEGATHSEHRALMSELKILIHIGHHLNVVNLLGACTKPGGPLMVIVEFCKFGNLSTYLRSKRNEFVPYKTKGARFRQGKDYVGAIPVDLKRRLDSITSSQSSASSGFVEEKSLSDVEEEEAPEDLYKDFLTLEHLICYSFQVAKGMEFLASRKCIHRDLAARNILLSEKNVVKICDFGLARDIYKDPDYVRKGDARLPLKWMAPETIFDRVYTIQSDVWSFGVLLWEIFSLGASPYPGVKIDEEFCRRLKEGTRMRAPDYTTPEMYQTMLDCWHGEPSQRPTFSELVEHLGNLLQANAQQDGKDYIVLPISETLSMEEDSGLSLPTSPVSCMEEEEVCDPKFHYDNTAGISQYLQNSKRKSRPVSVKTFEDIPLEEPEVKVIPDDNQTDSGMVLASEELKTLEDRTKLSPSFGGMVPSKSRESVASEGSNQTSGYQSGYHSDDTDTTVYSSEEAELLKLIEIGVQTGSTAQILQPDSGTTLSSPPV
T1 sequence (P00533 whole entry): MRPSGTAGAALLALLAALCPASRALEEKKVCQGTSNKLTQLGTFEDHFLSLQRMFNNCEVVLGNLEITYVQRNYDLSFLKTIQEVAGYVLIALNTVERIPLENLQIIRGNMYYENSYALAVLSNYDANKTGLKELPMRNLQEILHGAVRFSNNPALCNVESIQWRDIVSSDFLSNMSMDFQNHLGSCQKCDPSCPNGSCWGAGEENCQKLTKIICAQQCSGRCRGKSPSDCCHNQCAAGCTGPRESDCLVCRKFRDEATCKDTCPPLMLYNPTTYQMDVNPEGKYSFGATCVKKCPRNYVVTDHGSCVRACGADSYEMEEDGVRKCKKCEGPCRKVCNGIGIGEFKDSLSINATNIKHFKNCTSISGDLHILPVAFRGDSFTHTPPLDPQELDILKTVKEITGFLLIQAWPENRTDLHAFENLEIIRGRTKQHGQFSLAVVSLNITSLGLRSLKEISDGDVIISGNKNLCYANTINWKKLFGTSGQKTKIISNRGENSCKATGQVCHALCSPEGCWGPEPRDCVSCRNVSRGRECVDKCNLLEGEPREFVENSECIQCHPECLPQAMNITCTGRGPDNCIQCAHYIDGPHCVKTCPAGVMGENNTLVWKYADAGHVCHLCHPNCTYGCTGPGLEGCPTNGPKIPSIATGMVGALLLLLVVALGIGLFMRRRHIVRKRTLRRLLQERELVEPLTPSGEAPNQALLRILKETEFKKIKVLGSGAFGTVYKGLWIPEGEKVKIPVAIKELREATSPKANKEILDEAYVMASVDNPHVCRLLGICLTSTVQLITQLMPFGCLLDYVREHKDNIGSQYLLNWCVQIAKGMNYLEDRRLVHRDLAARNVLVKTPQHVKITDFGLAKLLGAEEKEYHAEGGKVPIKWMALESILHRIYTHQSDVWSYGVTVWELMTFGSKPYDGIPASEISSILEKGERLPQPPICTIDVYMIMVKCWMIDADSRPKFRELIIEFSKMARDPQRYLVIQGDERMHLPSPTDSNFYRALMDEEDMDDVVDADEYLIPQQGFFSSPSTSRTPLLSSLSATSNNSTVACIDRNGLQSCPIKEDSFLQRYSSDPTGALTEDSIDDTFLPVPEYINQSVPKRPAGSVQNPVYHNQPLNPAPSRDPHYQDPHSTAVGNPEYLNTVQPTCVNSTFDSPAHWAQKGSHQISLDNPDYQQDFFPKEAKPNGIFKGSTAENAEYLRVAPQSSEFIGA

SMILES	IC50 [1] [nM]	IC50 [2] [nM]	IC50 [3] [nM]	IC50 [4] [nM]
CCOc1cc2ncnc(NC3=CC(=O)C(OCc4cccc(C)c4)=CC3=O)c2cc1NC(=O)/C=C/CN(C)C	24.9	189	613	173
COCCOc1cc2ncnc(NC3=CC(=O)C(OCc4cccc(OC)c4)=CC3=O)c2cc1OC	7710	50.2	250	> 10000
CCOc1cc2ncnc(NC3=CC(=O)C(OC(CF)CF)=CC3=O)c2cc1NC(=O)/C=C/CN(C)C	283	109	303	2090
CCOc1cc2ncnc(NC3=CC(=O)C(OCc4ccccc4)=CC3=O)c2cc1NC(=O)/C=C/CN(C)C	18.7	102	783	216
CCOc1cc2ncnc(NC3=CC(=O)C(OCc4ccccn4)=CC3=O)c2cc1NC(=O)/C=C/CN(C)C	90.8	135	1010	792
CCOc1cc2ncnc(NC3=CC(=O)C(OC)=CC3=O)c2cc1NC(=O)/C=C/CN(C)C	799	379	1400	> 10000
CCOc1cc2ncc(C#N)c(Nc3ccc(F)c(Cl)c3)c2cc1NC(=O)/C=C/CN(C)C [PELITINIB]		3130	> 10000	

Other lines, results leading:

IC50 [1] [nM]	IC50 [2] [nM]	IC50 [3] [nM]	IC50 [4] [nM]	SMILES
107	372	1280	347	CCOc1cc2ncnc(NC3=CC(=O)C(OCc4cccc(OC)c4)=CC3=O)c2cc1NC(=O)/C=C/CN(C)C
< 10			704	CN(C)C/C=C/C(=O)Nc1ccc2ncnc(Nc3ccc(Br)cc3F)c2c1
> 10000	53.7	140	> 10000	COCCOc1cc2ncnc(NC3=CC(=O)C(OCc4ccccc4)=CC3=O)c2cc1OC
167	112	550	894	CCOc1cc2ncnc(NC3=CC(=O)C(OCc4ccc(F)c(F)c4)=CC3=O)c2cc1NC(=O)/C=C/CN(C)C
12.2	80.2	179	35.6	CCOc1cc2ncnc(NC3=CC(=O)C(OCc4cccc(Cl)c4)=CC3=O)c2cc1NC(=O)/C=C/CN(C)C
47.5	76.2	298	295	CCOc1cc2ncnc(NC3=CC(=O)C(OCc4cccs4)=CC3=O)c2cc1NC(=O)/C=C/CN(C)C
	1490	> 10000		COc1cc2ncnc(Nc3cccc(Br)c3)c2cc1OC
> 10000	46.1	188	> 10000	COCCOc1cc2ncnc(NC3=CC(=O)C(OCc4cccc(F)c4)=CC3=O)c2cc1OC
4.1	113	348	43.1	CCOc1cc2ncnc(NC3=CC(=O)C(OCc4cccc(F)c4)=CC3=O)c2cc1NC(=O)/C=C/CN(C)C
	858	> 10000		CCOc1cc2ncc(C#N)c(Nc3ccc(OCc4ccccn4)c(Cl)c3)c2cc1NC(=O)/C=C/CN(C)C [NERATINIB]
